Experimental findings from patent US9586951B2 (FUJIFILM Corporation, priority 2013, dated 2017) are described below.

The target in this test is T1, ATM (Homo sapiens, UniProt Q13315).
T1 construct: detecting phosphorylation of Chk2 in a human non-small cell lung cancer cell line NCI-H460 (ATCC company); host or cells: NCI-H460 human non-small cell lung cancer cells
T1 sequence (Q13315 whole entry): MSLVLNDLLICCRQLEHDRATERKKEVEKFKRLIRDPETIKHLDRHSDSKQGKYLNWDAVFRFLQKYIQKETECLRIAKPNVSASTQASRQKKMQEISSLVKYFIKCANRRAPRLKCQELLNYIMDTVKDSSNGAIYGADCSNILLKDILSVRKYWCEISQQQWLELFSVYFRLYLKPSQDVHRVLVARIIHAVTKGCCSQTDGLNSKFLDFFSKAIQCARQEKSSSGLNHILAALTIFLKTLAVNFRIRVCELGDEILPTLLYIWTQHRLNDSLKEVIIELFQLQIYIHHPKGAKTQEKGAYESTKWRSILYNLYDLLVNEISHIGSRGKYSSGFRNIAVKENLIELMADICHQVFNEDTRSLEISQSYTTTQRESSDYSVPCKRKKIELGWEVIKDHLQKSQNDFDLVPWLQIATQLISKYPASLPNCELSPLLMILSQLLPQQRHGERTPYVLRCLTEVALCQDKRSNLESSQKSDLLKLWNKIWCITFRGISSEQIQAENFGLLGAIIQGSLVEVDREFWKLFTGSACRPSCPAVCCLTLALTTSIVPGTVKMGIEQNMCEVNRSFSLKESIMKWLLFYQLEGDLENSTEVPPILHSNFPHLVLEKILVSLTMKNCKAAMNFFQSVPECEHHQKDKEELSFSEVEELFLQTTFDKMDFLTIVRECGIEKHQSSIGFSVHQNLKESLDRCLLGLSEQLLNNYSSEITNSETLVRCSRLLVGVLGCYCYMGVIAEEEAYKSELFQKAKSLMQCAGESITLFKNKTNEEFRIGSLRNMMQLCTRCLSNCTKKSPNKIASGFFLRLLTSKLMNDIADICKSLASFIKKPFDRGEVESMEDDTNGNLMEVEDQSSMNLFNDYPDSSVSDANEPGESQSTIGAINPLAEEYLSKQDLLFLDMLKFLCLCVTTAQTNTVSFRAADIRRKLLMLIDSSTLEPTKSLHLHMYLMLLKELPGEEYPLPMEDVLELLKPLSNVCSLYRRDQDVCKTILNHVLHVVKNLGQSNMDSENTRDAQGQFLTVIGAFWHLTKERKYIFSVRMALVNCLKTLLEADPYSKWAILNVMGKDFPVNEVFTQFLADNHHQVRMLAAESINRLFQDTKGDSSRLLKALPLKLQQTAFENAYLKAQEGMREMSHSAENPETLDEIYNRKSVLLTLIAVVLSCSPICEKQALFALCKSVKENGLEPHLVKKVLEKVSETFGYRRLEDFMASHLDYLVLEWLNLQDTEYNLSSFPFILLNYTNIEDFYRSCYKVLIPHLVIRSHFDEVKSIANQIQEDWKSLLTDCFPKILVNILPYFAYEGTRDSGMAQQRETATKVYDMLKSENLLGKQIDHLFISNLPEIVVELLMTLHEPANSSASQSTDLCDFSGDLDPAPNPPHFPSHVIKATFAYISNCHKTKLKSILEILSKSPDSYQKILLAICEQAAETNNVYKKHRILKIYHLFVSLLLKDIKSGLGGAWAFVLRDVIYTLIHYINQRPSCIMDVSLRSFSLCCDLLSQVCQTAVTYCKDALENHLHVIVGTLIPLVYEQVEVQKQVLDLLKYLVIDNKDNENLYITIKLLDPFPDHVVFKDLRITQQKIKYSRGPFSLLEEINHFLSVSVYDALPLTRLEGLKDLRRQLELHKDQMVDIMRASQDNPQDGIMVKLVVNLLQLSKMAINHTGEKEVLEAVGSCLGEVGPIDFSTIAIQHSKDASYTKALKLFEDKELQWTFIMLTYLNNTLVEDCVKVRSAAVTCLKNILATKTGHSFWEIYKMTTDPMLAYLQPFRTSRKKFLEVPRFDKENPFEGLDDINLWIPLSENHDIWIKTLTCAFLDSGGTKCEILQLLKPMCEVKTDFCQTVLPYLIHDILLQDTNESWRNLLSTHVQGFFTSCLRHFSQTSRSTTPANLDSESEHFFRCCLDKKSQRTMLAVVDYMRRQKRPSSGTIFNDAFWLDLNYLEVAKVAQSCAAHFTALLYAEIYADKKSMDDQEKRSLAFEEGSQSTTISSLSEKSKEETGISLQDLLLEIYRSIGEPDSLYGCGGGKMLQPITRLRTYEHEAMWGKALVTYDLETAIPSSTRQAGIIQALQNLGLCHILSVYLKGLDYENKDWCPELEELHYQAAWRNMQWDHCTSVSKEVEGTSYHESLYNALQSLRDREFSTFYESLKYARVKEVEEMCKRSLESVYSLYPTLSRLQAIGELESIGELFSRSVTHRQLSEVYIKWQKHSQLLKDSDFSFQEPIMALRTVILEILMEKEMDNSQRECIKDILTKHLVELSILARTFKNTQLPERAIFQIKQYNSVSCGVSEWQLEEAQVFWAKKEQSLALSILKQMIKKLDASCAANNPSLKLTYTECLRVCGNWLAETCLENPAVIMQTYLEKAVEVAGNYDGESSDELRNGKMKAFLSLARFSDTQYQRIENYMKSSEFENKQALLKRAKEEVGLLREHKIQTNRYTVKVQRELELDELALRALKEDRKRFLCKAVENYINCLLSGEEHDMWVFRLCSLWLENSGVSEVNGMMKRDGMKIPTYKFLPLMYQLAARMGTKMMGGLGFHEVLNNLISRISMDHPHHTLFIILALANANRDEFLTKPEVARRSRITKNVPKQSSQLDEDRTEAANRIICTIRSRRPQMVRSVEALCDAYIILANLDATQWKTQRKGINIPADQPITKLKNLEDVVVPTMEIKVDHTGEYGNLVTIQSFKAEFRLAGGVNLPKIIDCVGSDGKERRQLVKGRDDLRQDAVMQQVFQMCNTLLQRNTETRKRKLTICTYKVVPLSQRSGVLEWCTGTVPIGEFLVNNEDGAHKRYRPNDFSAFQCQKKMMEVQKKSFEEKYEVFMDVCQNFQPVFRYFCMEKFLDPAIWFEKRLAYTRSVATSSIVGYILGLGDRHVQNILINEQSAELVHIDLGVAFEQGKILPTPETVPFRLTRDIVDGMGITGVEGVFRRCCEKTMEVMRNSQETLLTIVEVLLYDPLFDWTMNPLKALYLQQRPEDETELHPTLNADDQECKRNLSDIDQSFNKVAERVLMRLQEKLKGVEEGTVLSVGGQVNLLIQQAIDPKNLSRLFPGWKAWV
As to the kind of experiment: ATM inhibition test (phosphorylation of Chk2 generated by ionizing radiation, AlphaScreen SureFire). Type of test: cell-based. Particulars: phosphorylated Chk2 in NCI-H460 cells, ionizing radiation 8Gy, 1 hour after test compound treatment; read-out: ATM inhibitory activity. Summed up:
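NCI-H460 cells treated with compound for 1 hour, then irradiated with 8Gy and incubated 1 hour at 37° C. Phospho-Chk2 measured by AlphaScreen SureFire. Inhibition ratio calculated relative to untreated irradiated and non-irradiated wells.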
On the technique in general: Bead proximity is the source of the signal in Alpha formats.
On to `O=c1cc(N2CCOCC2)cc(-c2cccc3c2Oc2ccc(NCc4cccc(C5CC5)n4)cc2S3)[nH]1` [Example 4-4-21, 6-(8-(((6-Cyclopropylpyridin-2-yl)methyl)amino)phenoxathiin-4-yl)-4-morpholino pyrdin-2(1H)-one], for which the IC50 lay within 100 to 500 nM.
As for `COc1cncc(CNc2ccc3c(c2)Cc2cccc(-c4nc(N5CCOCC5)cc(=O)[nH]4)c2O3)c1` [Example 2-52-2, 2-(7-(((5-Methoxypyridin-3-yl)methyl)amino)-9H-xanthen-4-yl)-6-morpholino pyrimidine-4(3H)-one], the IC50 fell in the range of 100 to 500 nM.
Take `COc1cc(CNc2ccc3c(c2)Sc2cccc(-c4cc(N5CCOCC5)cc(=O)[nH]4)c2S3)cnc1OC` [Example 1-12-7, 6-(7-(((5,6-Dimethoxypyridin-3-yl)methyl)amino)thianthren-1-yl)-4-morpholino pyridin-2(1H)-one]: the IC50 is 100 to 500 nM.
The result for `CC(CCN1CCN(C)CC1)Nc1ccc2c(c1)Sc1cccc(-c3cc(N4CCOCC4)cc(=O)[nH]3)c1S2` (centres unmarked) [Example 1-42-2, 6-(7-((4-(4-Methylpiperazin-1-yl)butan-2-yl)amino)thianthren-1-yl)-4-morpholino pyridin-2(1H)-one] reads 100 to 500 nM.
For `Cc1cccc(C(CN)Nc2ccc3c(c2)Sc2cccc(-c4cc(N5CCOCC5)cc(=O)[nH]4)c2S3)n1` (centres unmarked) [Example 1-19-2, 6-(7-((2-Amino-1-(6-methylpyridin-2-yl)ethyl)amino)thianthren-1-yl)-4-morpholinopyridin-2(1H)-one], the IC50 was 100 to 500 nM.
Consider `CCC(C)C(Nc1ccc2c(c1)Sc1cccc(-c3cc(N4CCOCC4)cc(=O)[nH]3)c1S2)c1ccc(C)cn1` (centres unmarked) [Example 1-12-122, 6-(7-((2-Methyl-1-(5-methylpyridin-2-yl)butyl)amino)thianthren-1-yl)-4-morpholino pyridin-2(1H)-one], for which the IC50 is 100 to 500 nM.
Consider `O=c1cc(N2CCOCC2)cc(-c2cccc3c2Sc2ccc(NC(CO)CN4CCOCC4)cc2S3)[nH]1` (centres unmarked) [Example 1-37-2, 6-(7-((1-Hydroxy-3-morpholinopropan-2-yl)amino)thianthren-1-yl)-4-morpholino pyridin-2(1H)-one], for which the IC50 lay in the range of 100 to 500 nM.
As for `O=c1cc(N2CCOCC2)cc(-c2cccc3c2Sc2ccc(NCc4ccncc4)cc2C3)[nH]1` [Example 3-8-2, 4-Morpholino-6-(7-((pyridin-4-ylmethyl)amino)-9H-thioxanthen-4-yl)pyridin-2(1H)-one], the IC50 fell in the range of 500 to 2000 nM.
The result for `CCN1CCN(CC(C)Nc2ccc3c(c2)Sc2cccc(-c4cc(N5CCOCC5)cc(=O)[nH]4)c2S3)CC1` (centres unmarked) [Example 1-13-13, 6-(7-((1-(4-Ethylpiperazin-1-yl)propan-2-yl)amino)thianthren-1-yl)-4-morpholino pyridin-2(1H)-one] reads 100 to 500 nM; that for `COc1cccc(C(C)Nc2ccc3c(c2)Cc2cccc(-c4cc(N5CCOCC5)cc(=O)[nH]4)c2O3)n1` (centres unmarked) [Example 2-14-30, 6-(7-((1-(6-Methoxypyridin-2-yl)ethyl)amino)-9H-xanthen-4-yl)-4-morpholine pyridin-2(1H)-one], 100 to 500 nM.
Take `CN1CCN(CCNc2ccc3c(c2)Cc2cccc(-c4cc(N5CCOCC5)cc(=O)[nH]4)c2S3)CC1` [Example 3-4-3, 6-(7-((2-(4-Methylpiperazin-1-yl)ethyl)amino)-9H-thioxanthen-4-yl)-4-morpholino pyridin-2 (1H)-one]: the IC50 fell in the range of 500 to 2000 nM.
`CN1CCN(c2cccc(CNc3ccc4c(c3)Sc3cccc(-c5cc(N6CCOCC6)cc(=O)[nH]5)c3S4)n2)CC1` [Example 1-12-33, 6-(7-(((6-(4-Methylpiperazin-1-yl)pyridin-2-yl)methyl)amino)thianthren-1-yl)-4-morpholino pyridin-2 (1H)-one]: the IC50 was in the range of 100 to 500 nM.
On to `CCC(CC)(Nc1ccc2c(c1)Sc1cccc(-c3cc(N4CCOCC4)cc(=O)[nH]3)c1S2)c1ccc(C)cn1` [Example 1-50-6, 6-(7-((3-(5-Methylpyridin-2-yl)pentan-3-yl)amino)thianthren-1-yl)-4-morpholino pyridin-2(1H)-one], for which the IC50 was in the range of 500 to 2000 nM.
On to `CC[C@H](N)C(C)Nc1ccc2c(c1)Sc1cccc(-c3cc(N4CCOCC4)cc(=O)[nH]3)c1S2` (stereo partly drawn) [Example 1-20-5, 6-(7-(((3S)-3-Aminopentan-2-yl)amino)thianthren-1-yl)-4-morpholino pyridin-2(1H)-one], for which the IC50 lay in the range of 100 to 500 nM.
Turning to `COc1cncc(CN2CCC(Nc3ccc4c(c3)Cc3cccc(-c5cc(N6CCOCC6)cc(=O)[nH]5)c3O4)CC2)c1` [Example 2-28-2, 6-(7-((1-((5-Methoxypyridin-3-yl)methyl)piperidin-4-yl)amino)-9H-xanthen-4-yl)-4-morpholino pyridin-2(1H)-one], the IC50 was 500 to 2000 nM.
On to `COc1ncc(CNc2ccc3c(c2)Cc2ccnc(-c4cc(N5CCOCC5)cc(=O)[nH]4)c2O3)cn1` [Example 2-42-1, 6-(7-(((2-Methoxypyrimidin-5-yl)methyl)amino)-5H-chromeno[2,3-c]pyridin-1-yl)-4-morpholinopyridin-2(1H)-one], for which the IC50 lay in the range of 500 to 2000 nM.
Consider `Cc1ccc(C(Nc2ccc3c(c2)Sc2cccc(-c4cc(N5CCOCC5)cc(=O)[nH]4)c2S3)[C@@H]2CN(C)CCO2)nc1` (single isomer, unassigned) [Example 1-56-11], for which the IC50 is under 100 nM.
As to `CN(C)c1ccc(CN2CCC(Nc3ccc4c(c3)Cc3cccc(-c5cc(N6CCOCC6)cc(=O)[nH]5)c3O4)CC2)cn1` [Example 2-28-9, 6-(7-((1-((6-(Dimethylamino)pyridin-3-yl)methyl)piperidin-4-yl)amino)-9H-xanthen-4-yl)-4-morpholino pyridin-2(1H)-one], the IC50 lay within 100 to 500 nM.
On to `O=c1cc(N2CCOCC2)cc(-c2cccc3c2Sc2ccc(NCc4ncccn4)cc2C3)[nH]1` [Example 3-8-6, 4-Morpholino-6-(7-((pyrimidin-2-ylmethyl)amino)-9H-thioxanthen-4-yl) pyridin-2(1H)-one], for which the IC50 lay within 100 to 500 nM.
Regarding `O=C(CN1C2CCC1COC2)Nc1ccc2c(c1)Sc1cccc(-c3cc(N4CCOCC4)cc(=O)[nH]3)c1S2` [Example 1-7-2, 2-(3-Oxa-8-azabicyclo[3.2.1]octan-8-yl)-N-(6-(4-morpholino-6-oxo-1,6-dihydropyridin-2-yl)thianthren-2-yl)acetamide], the IC50 fell in the range of 100 to 500 nM.
Regarding `COc1ccncc1CN1CCC(Nc2ccc3c(c2)Sc2cccc(-c4cc(N5CCOCC5)cc(=O)[nH]4)c2S3)CC1` [Example 1-45, 6-(7-((1-((4-Methoxypyridin-3-yl)methyl)piperidin-4-yl)amino)thianthren-1-yl)-4-morpholinopyridin-2(1H)-one], the IC50 was 100 to 500 nM.
In the case of `O=c1cc(N2CCOCC2)cc(-c2cccc3c2Sc2ccc(NCCCCN4CCOCC4)cc2S3)[nH]1` [Example 1-9-4, 4-Morpholino-6-(7-((4-morpholinobutyl)amino)thianthren-1-yl)pyridin-2(1H)-one], the IC50 lay within 100 to 500 nM.
Take `CNCCC(Nc1ccc2c(c1)Sc1cccc(-c3cc(N4CCOCC4)cc(=O)[nH]3)c1S2)c1cccc(C)n1` (centres unmarked) [Example 1-20-12, 6-(7-((3-(Methylamino)-1 (6-methyl pyridin-2-yl)propyl)amino)thianthren-1-yl)-4-morpholino pyridin-2 (1H)-one]: the IC50 fell in the range of 100 to 500 nM.
